In ChEMBL document CHEMBL1201862, “PubChem BioAssay data set” (2004):
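Cultured in 96-well plates, cells were exposed to test compound for 48 hours across five concentrations. GI50 = concentration required for 50% inhibition of growth.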 The source made the active and inactive calls. Rule as the data show it: active = GI50 up to about 1.1 µM and inactive = higher.

Experiments:
Test in all cases: growth of human tumour cells (NCI), 48 h
HCC 2998 = tested on: HCC 2998
SK-MEL-28 = tested on: SK-MEL-28
SN12C = tested on: SN12C
786-0 = tested on: 786-0
HCT-116 = tested on: HCT-116
Malme-3M = tested on: Malme-3M
SNB-75 = tested on: SNB-75
OVCAR-3 = tested on: OVCAR-3
T47D = tested on: T47D
SW-620 = tested on: SW-620
NCI-H23 = tested on: NCI-H23
SF-539 = tested on: SF-539
SR = tested on: SR
NCI/ADR-RES = tested on: NCI/ADR-RES
MCF7 = tested on: MCF7
MDA-MB-435 = tested on: MDA-MB-435
LOX IMVI = tested on: LOX IMVI
OVCAR-8 = tested on: OVCAR-8
K562 = tested on: K562

SMILES | GI50 (HCC 2998) | GI50 (SK-MEL-28) | GI50 (SN12C) | GI50 (786-0) | GI50 (HCT-116) | GI50 (Malme-3M) | GI50 (SNB-75) | GI50 (OVCAR-3) | GI50 (T47D) | GI50 (SW-620) | GI50 (NCI-H23) | GI50 (SF-539) | GI50 (SR) | GI50 (NCI/ADR-RES) | GI50 (MCF7) | GI50 (MDA-MB-435) | GI50 (LOX IMVI) | GI50 (OVCAR-8) | GI50 (K562)
Cc1occc1C(=S)Nc1ccc(Cl)c(C(=O)OC(C)C2CC2)c1 (stereo not drawn) | 20.3 µM (inactive) | 57.9 µM (inactive) | 18 µM (inactive) | 19.3 µM (inactive) | 26.5 µM (inactive) | 16.4 µM (inactive) | 20.4 µM (inactive) | 16.6 µM (inactive) | 19.1 µM (inactive) | 35.8 µM (inactive) | 15.6 µM (inactive) | 22.3 µM (inactive) | 18.3 µM (inactive) | 19.3 µM (inactive) | 26 µM (inactive) | 24.8 µM (inactive) | 19.4 µM (inactive) | 18.3 µM (inactive) | –
O=C(NCCN1CCCC1)c1cn2c(ccc3sc4ccccc4c(=O)c32)n1 | 6.56 µM (inactive) | 16.6 µM (inactive) | 10.9 µM (inactive) | 1.41 µM (inactive) | 4.02 µM (inactive) | 16 µM (inactive) | 19.1 µM (inactive) | 14.7 µM (inactive) | 19.6 µM (inactive) | 1.51 µM (inactive) | 14.6 µM (inactive) | 14.9 µM (inactive) | 1.17 µM (inactive) | 13.3 µM (inactive) | 2.77 µM (inactive) | 21 µM (inactive) | 1.46 µM (inactive) | 4.95 µM (inactive) | 1.5 µM (inactive)
CN(C)CCCSc1nc2c(c(=N)n1-c1ccccc1)c(=S)n(-c1ccccc1)c(=S)n2-c1ccccc1 | 1.45 µM (inactive) | 2.04 µM (inactive) | 1.74 µM (inactive) | 1.27 µM (inactive) | 1.98 µM (inactive) | 2.04 µM (inactive) | 1.63 µM (inactive) | 1.75 µM (inactive) | 2.01 µM (inactive) | 1.79 µM (inactive) | 2.07 µM (inactive) | 2.52 µM (inactive) | 0.237 µM (active) | 2.59 µM (inactive) | 0.383 µM (active) | 1.72 µM (inactive) | 1.29 µM (inactive) | 1.77 µM (inactive) | 0.459 µM (active)
Cc1ccc(S(=O)(=O)NC2=NS(=O)(=O)c3cc(C)c(Cl)cc3S2)cc1 | 82.6 µM (inactive) | > 100 µM (inactive) | > 100 µM (inactive) | > 100 µM (inactive) | 88.3 µM (inactive) | 38.8 µM (inactive) | > 100 µM (inactive) | > 100 µM (inactive) | 70.1 µM (inactive) | 71.6 µM (inactive) | > 100 µM (inactive) | 58.3 µM (inactive) | 63.4 µM (inactive) | > 100 µM (inactive) | 85.3 µM (inactive) | > 100 µM (inactive) | 62.2 µM (inactive) | > 100 µM (inactive) | 34.3 µM (inactive)
NS(=O)(=O)c1c(O)c2ccccc2oc1=O | > 100 µM (inactive) | > 100 µM (inactive) | > 100 µM (inactive) | > 100 µM (inactive) | > 100 µM (inactive) | > 100 µM (inactive) | > 100 µM (inactive) | > 100 µM (inactive) | > 100 µM (inactive) | > 100 µM (inactive) | > 100 µM (inactive) | > 100 µM (inactive) | > 100 µM (inactive) | > 100 µM (inactive) | > 100 µM (inactive) | > 100 µM (inactive) | > 100 µM (inactive) | > 100 µM (inactive) | > 100 µM (inactive)
O=C1/C(=C\c2cccc(Oc3ccccc3)c2)SC(c2ccccc2)N1c1ccc(Cl)cc1 (stereo not drawn) | 87.5 µM (inactive) | 64.9 µM (inactive) | 26.7 µM (inactive) | 52.4 µM (inactive) | 10.3 µM (inactive) | 45.6 µM (inactive) | 90.4 µM (inactive) | 41.4 µM (inactive) | 5.37 µM (inactive) | 27.7 µM (inactive) | 15.8 µM (inactive) | 21.3 µM (inactive) | 3.91 µM (inactive) | 21.4 µM (inactive) | 16.3 µM (inactive) | 2.24 µM (inactive) | 15.8 µM (inactive) | 32.9 µM (inactive) | 2.64 µM (inactive)
OC1CCC(COC(c2ccccc2)(c2ccccc2)c2ccccc2)O1 (stereo not drawn) | 16.4 µM (inactive) | 18 µM (inactive) | 19.2 µM (inactive) | 19.4 µM (inactive) | 16.7 µM (inactive) | 17.9 µM (inactive) | 13.4 µM (inactive) | 18.4 µM (inactive) | 20.2 µM (inactive) | 17.5 µM (inactive) | 18 µM (inactive) | 17.3 µM (inactive) | > 10 µM (inactive) | 17.7 µM (inactive) | 17.1 µM (inactive) | 21.5 µM (inactive) | 15.4 µM (inactive) | 17.9 µM (inactive) | 14.8 µM (inactive)
CN1C(=O)C23CC4=CC=CC(O)C4N2C(=O)C1(CO)SS3 (stereo not drawn) | 0.155 µM (active) | 0.507 µM (active) | 0.0705 µM (active) | 0.084 µM (active) | 0.107 µM (active) | 0.223 µM (active) | 0.21 µM (active) | 0.199 µM (active) | 0.183 µM (active) | 0.237 µM (active) | 0.167 µM (active) | 0.0204 µM (active) | 0.0291 µM (active) | 0.0224 µM (active) | 0.16 µM (active) | 0.224 µM (active) | 0.17 µM (active) | 0.0611 µM (active) | 0.139 µM (active)
COc1ccc(CC/N=C2\OCc3ccccc32)cc1OC | > 100 µM (inactive) | > 100 µM (inactive) | 69.3 µM (inactive) | 45.3 µM (inactive) | 24 µM (inactive) | 56.8 µM (inactive) | 68.2 µM (inactive) | – | 27.5 µM (inactive) | 54.5 µM (inactive) | 32.7 µM (inactive) | 20.7 µM (inactive) | 11.5 µM (inactive) | 67 µM (inactive) | 27.7 µM (inactive) | 43.2 µM (inactive) | 41.2 µM (inactive) | 91.8 µM (inactive) | 23.4 µM (inactive)
COc1ccccc1Nc1nc(N)nc(N)c1N | > 100 µM (inactive) | > 100 µM (inactive) | 17.5 µM (inactive) | 33.4 µM (inactive) | 19 µM (inactive) | > 100 µM (inactive) | > 100 µM (inactive) | 43.9 µM (inactive) | 58.5 µM (inactive) | 27.2 µM (inactive) | 66.1 µM (inactive) | 50.6 µM (inactive) | 23.7 µM (inactive) | > 100 µM (inactive) | 29.2 µM (inactive) | 27.5 µM (inactive) | 20.8 µM (inactive) | > 100 µM (inactive) | 45.1 µM (inactive)
CN1CCN(CCCCN2c3ccccc3Sc3ccc(N=[N+]=[N-])cc32)CC1 | 3.74 µM (inactive) | 1.84 µM (inactive) | 12.2 µM (inactive) | 7.76 µM (inactive) | 3.72 µM (inactive) | 2.43 µM (inactive) | 4.55 µM (inactive) | 8.07 µM (inactive) | 14.9 µM (inactive) | 2.68 µM (inactive) | 17.8 µM (inactive) | 7.35 µM (inactive) | 2.58 µM (inactive) | 11.7 µM (inactive) | 4.17 µM (inactive) | 2.07 µM (inactive) | 2.47 µM (inactive) | 13.5 µM (inactive) | 1.89 µM (inactive)
O=C(Nc1ccc(Cl)c(Cl)c1)N1N=C2c3ccccc3CCC2C1c1ccc(Cl)cc1 (stereo not drawn) | > 100 µM (inactive) | > 100 µM (inactive) | > 100 µM (inactive) | > 100 µM (inactive) | > 100 µM (inactive) | > 100 µM (inactive) | > 100 µM (inactive) | > 100 µM (inactive) | > 100 µM (inactive) | > 100 µM (inactive) | > 100 µM (inactive) | > 100 µM (inactive) | > 100 µM (inactive) | > 100 µM (inactive) | > 100 µM (inactive) | > 100 µM (inactive) | > 100 µM (inactive) | > 100 µM (inactive) | > 100 µM (inactive)
COC(=O)C[C@H](CCSC)NC(=O)C[C@H](CCSC)NC(=O)C[C@H](CCSC)NC(=O)OC(C)(C)C | > 100 µM (inactive) | > 100 µM (inactive) | 32.8 µM (inactive) | 33.6 µM (inactive) | 37.1 µM (inactive) | > 100 µM (inactive) | 13.4 µM (inactive) | 22.5 µM (inactive) | 63.1 µM (inactive) | > 100 µM (inactive) | 47.2 µM (inactive) | 17.5 µM (inactive) | 39.6 µM (inactive) | > 100 µM (inactive) | 38.1 µM (inactive) | 39.5 µM (inactive) | > 100 µM (inactive) | 28.7 µM (inactive) | > 100 µM (inactive)
Nc1ncnc2c1ncn2CCCNO | > 100 µM (inactive) | > 100 µM (inactive) | > 100 µM (inactive) | > 100 µM (inactive) | > 100 µM (inactive) | > 100 µM (inactive) | > 100 µM (inactive) | > 100 µM (inactive) | > 100 µM (inactive) | > 100 µM (inactive) | > 100 µM (inactive) | > 100 µM (inactive) | > 100 µM (inactive) | > 100 µM (inactive) | > 100 µM (inactive) | > 100 µM (inactive) | > 100 µM (inactive) | > 100 µM (inactive) | > 100 µM (inactive)
NS(=O)(=O)c1ccc(/N=N/c2nc3nc(O)nc(O)c3[nH]2)cc1 | > 100 µM (inactive) | > 100 µM (inactive) | > 100 µM (inactive) | > 100 µM (inactive) | > 100 µM (inactive) | > 100 µM (inactive) | > 100 µM (inactive) | > 100 µM (inactive) | > 100 µM (inactive) | > 100 µM (inactive) | > 100 µM (inactive) | > 100 µM (inactive) | 39.8 µM (inactive) | > 100 µM (inactive) | > 100 µM (inactive) | > 100 µM (inactive) | > 100 µM (inactive) | > 100 µM (inactive) | > 100 µM (inactive)
